Data taken from patent US10328083B1, “Compositions and methods for treating stroke” (University of South Florida, priority 2012, dated 2019).
Where a name gives a salt, the structure may show the parent alone.

Assays:
Type in all cases: in vivo
[1] = system: permanent middle cerebral artery occlusion (MCAO) in rats; assay: Results of treatment post MCAO (Table 3; CD11b staining of infarct and surrounding areas per FIGS. 2-4); details: treatment started 6 h post MCAO; rats euthanized at 48 h post MCAO
Protocol: FIG. 1 is a table showing the conivaptan treatment regimens. The five treatment groups were normal saline (control)[NS], 5% saline infusion+5% saline maintenance [5% IM], conivaptan only [C], conivaptan+5% saline maintenance [C5% M], and conivaptan+5% saline infusion+5% saline maintenance [C5% IM]. (Euth.=euthanized).
FIG. 4 is a graph showing the average area fraction of CD11b staining at 48 hours post MCAO following the various treatments.
(§1) Permanent middle cerebral artery occlusion (MCAO) was induced in rats. Post MCAO, conivaptan, hyper saline or normal saline was administered to the rats via jugular catheter at varying times and dosages. The conivaptan used was Vaprisol® which is a conivaptan hydrochloride premixed in 5% dextrose at 20 mg/100 ml in 100 ml IV bag. The conivaptan was purchased from Astellas Pharma USA, Inc. (lot#0789065) and sub-aliquoted into sterile foil-covered vials. Hyper saline solutions were 5% NaCl. Saline solutions were 0.9% NaCl.
For rats receiving the six-hour treatment, 0.5 ml (0.35 mg/kg) bolus conivaptan was administered 6 hours post MCAO, followed by administrations of 0.1 ml (0.07 mg/kg) conivaptan at 9 hours post MCAO. At 20, 24, 28, and 32 hours post MCAO, 0.1 ml (0.07 mg/kg) conivaptan was administered. A saline control (1.4 ml of 0.9% saline) was then injected at 44 hours post MCAO. At 48 hours post MCAO, the rats were euthanized. […]

[2] = system: permanent middle cerebral artery occlusion (MCAO) in rats; assay: Mortality rate prior to euthanization after permanent MCAO; details: for FD: jugular catheter, up to 48 h post MCAO
Protocol: as §1, with “MCAO, conivaptan” for “MCAO, conivaptan, hyper saline or normal saline”, “the rat” for “the rats”, “was VAPRISOL®” for “was Vaprisol®”, “vials.” for “vials. Hyper saline solutions were 5% NaCl. Saline solutions were 0.9% NaCl.”
(§2) For rats receiving the 6-hour treatment, 0.5 ml (0.35 mg/kg) bolus conivaptan was administered six hours post MCAO, followed by administrations of 0.1 ml (0.07 mg/kg) conivaptan at nine hours post MCAO. At 20, 24, 28, and 32 hours post MCAO, 0.1 ml (0.07 mg/kg) conivaptan was administered. A saline control (1.4 ml of 0.9% saline) was then injected at 44 hours post MCAO. At 48 hours post MCAO, the rats were euthanized.
(§3) For rats receiving the 24-hour treatment, 0.5 ml (0.35 mg/kg) bolus conivaptan was administered 24 hours post MCAO, followed by administrations of 0.1 ml (0.07 mg/kg) conivaptan at 20, 24, 28 and 32 hours post MCAO. Saline controls (1.4 ml of 0.9% saline) were injected at 6, 9, and 44 hours post MCAO. At 48 hours post MCAO, the rats were euthanized.
The mortality rate prior to euthanization is provided below in Table 1: […]

[3] = system: permanent middle cerebral artery occlusion (MCAO) in rats; assay: Fluoro-Jade staining of neural biopsies from the site of the infarct after permanent MCAO
Protocol: as §1, with “MCAO, conivaptan” for “MCAO, conivaptan, hyper saline or normal saline”, “the rat” for “the rats”, “was VAPRISOL®” for “was Vaprisol®”, “vials.” for “vials. Hyper saline solutions were 5% NaCl. Saline solutions were 0.9% NaCl.”
as §2, §3
Fluoro-Jade staining of neural biopsies obtained from the site of the infarct was also performed and the results are shown in Table 2.

Cc1nc2c([nH]1)-c1ccccc1N(C(=O)c1ccc(NC(=O)c3ccccc3-c3ccccc3)cc1)CC2 [conivaptan, conivaptan hydrochloride]
Avg (Table 3, results of treatment) [1]: 0.486 | FD ([2]; 6-hour treatment: 0.35 mg/kg bolus 6 h post MCAO, then 0.07 mg/kg at 9, 20, 24, 28, 32 h): 2 | % Survival ([2]; 6-hour treatment, prior to euthanization at 48 h post MCAO): 78% | % Survival (total) ([2]; 6-hour treatment, value in brackets (total), prior to euthanization at 48 h post MCAO): 82% | FD ([2]; 24-hour treatment: 0.35 mg/kg bolus 24 h post MCAO, then 0.07 mg/kg doses): 4 | % Survival ([2]; 24-hour treatment, prior to euthanization at 48 h post MCAO): 56% | Fluoro-Jade staining Avg ([3]; 6-hour treatment, n = 7, p = .06 compared to controls): 38.331 g | decrease in Fluoro-Jade staining compared to controls ([3]; 6-hour treatment, p = .06): *p = .06 compared to controls 37% decrease | Fluoro-Jade staining Avg ([3]; 24-hour treatment, n = 5, p = 0.3 compared to controls): 55.388 g
